Experimental findings from patent US8592477B2, “Polymorphic form of rotigotine and process for production” (UCB Pharma GmbH, priority 2007, dated 2013) are described below.

Data set [1] is described as follows: Solubility in EtOH at room temperature. It is filed as physicochemical. The conditions noted are these: form (II) vs form (I).
Data set [2] is described as follows: Thermodynamic stability from DSC data (melting point, enthalpy of fusion, Burger-Ramberger rules). It is filed as physicochemical. The following applies: heating rate 10° C./min, 30° C. to 140° C., all considered temperatures. How it is done:
Further, differential scanning calorimetry (DSC) data reveal the difference between the two polymorphic forms of Rotigotine (FIGS. 7 and 8). […] Therefore, the two polymorphs of Rotigotine appear to be monotropically related.
Thermal behavior investigations of Rotigotine of polymorphic form (I) (batch 1608726) and of polymorphic form (II) (batch 7769396) were performed on a Mettler Toledo DSC system and on a TA instrument (Q-1000). The analyses were carried out with a heating rate of 10° C./min in pierced aluminum crucibles in a temperature range from 30° C. to 140° C.
In sum, the two polymorphic forms of Rotigotine can be differentiated by their respective melting point and their respective enthalpy of fusion. […] Therefore, the two polymorphs of Rotigotine are most probably monotropically related.

For `CCCN(CCc1cccs1)[C@H]1CCc2c(O)cccc2C1` [polymorphic form (II), (−)-5,6,7,8-tetrahydro-6-[propyl-[2-(2-thienyl)ethyl]-amino]-1-naphthalenol], the “solubility in EtOH relative to polymorphic form (I)” value in data set [1] is recorded as “at least five times lower”. Moreover, the “thermodynamic stability relative to the other polymorph” value in data set [2] is “thermodynamically more stable than polymorphic form (I)”.
